Reference: patent US20050004126A1 (priority 2001, published 2005)

Molecular target: MMP-13CD (catalytic domain of collagenase 3) (Homo sapiens, UniProt P45452)
Test: biochemical
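Further: inhibition of enzymatic thiopeptolide substrate cleavage (100 µM) in pH 6.0 MES buffer with CaCl2 and DTNB, comparing hydrolysis with versus without inhibitor.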

| SMILES | IC50 |
| --- | --- |
| COc1ccc(CNC(=O)c2ccc3[nH]c(=O)n(Cc4ccccc4)c(=O)c3c2)cc1 [3-Benzyl-2,4-dioxo-1,2,3,4-tetrahydroquinazoline-6-carboxylic acid 4-methoxybenzylamide] | 0.049 µM |
| Cc1ccc(CNC(=O)c2ccc3[nH]c(=O)n(Cc4ccccc4)c(=O)c3c2)cc1 [3-Benzyl-2,4-dioxo-1,2,3,4-tetrahydroquinazoline-6-carboxylic acid 4-methylbenzylamide] | 1.32 µM |
| O=C(NCc1cccs1)c1ccc2[nH]c(=O)n(Cc3ccccc3)c(=O)c2c1 [3-Benzyl-2,4-dioxo-1,2,3,4-tetrahydroquinazoline-6-carboxylic acid (2-thienylmethyl)amide] | 1.87 µM |
| O=C(NCc1cccnc1)c1ccc2[nH]c(=O)n(Cc3ccccc3)c(=O)c2c1 [3-Benzyl-2,4-dioxo-1,2,3,4-tetrahydroquinazoline-6-carboxylic acid (3-pyridylmethyl)amide] | 0.366 µM |
| O=C(NCc1ccncc1)c1ccc2[nH]c(=O)n(Cc3ccccc3)c(=O)c2c1 [3-Benzyl-2,4-dioxo-1,2,3,4-tetrahydroquinazoline-6-carboxylic acid (4-pyridylmethyl)amide] | 0.183 µM |
| O=C(OCc1ccncc1)c1cnc2[nH]c(=O)n(Cc3ccccc3)c(=O)c2c1 [4-Pyridylmethyl 3-benzyl-2,4-dioxo-1,2,3,4-tetrahydropyrido[2,3-d]-pyrimidine-6-carboxylate] | 0.062 µM |
| O=C(OCc1ccccc1)c1ccc2c(c1)c(=O)n(Cc1ccncc1)c(=O)n2Cc1ccccc1 [Benzyl 1-benzyl-2,4-dioxo-3-pyrid-4-ylmethyl-1,2,3,4-tetrahydroquin-azoline-6-carboxylate] | 1.21 µM |
| O=C(OCc1ccccc1)c1cnc2[nH]c(=O)n(Cc3ccccc3)c(=O)c2c1 [Benzyl 3-benzyl-2,4-dioxo-1,2,3,4-tetrahydropyrido[2,3-d]pyrimidine-6-carboxylate] | 0.096 µM |
| COC(=O)c1ccc(CNC(=O)c2ccc3c(c2)c(=O)n(Cc2ccccc2)c(=O)n3C)cc1 [Methyl 4-({[1-(3-benzyl-1-methyl-2,4-dioxo-1,2,3,4-tetrahydroquin-azolin-6-yl)methanoyl]amino}methyl)benzoate] | 2.25 µM |
| O=C(NCc1ccccc1)c1ccc2[nH]c(=O)n(Cc3ccccc3)c(=O)c2c1 [Synthesis Example 22, 3-Benzyl-2,4-dioxo-1,2,3,4-tetrahydroquinazoline-6-carboxylic acid benzylamide] | 0.193 µM |
| COc1cc(CNC(=O)c2ccc3c(c2)c(=O)n(Cc2ccccc2)c(=O)n3C)ccc1O [Synthesis Example 25, 3-Benzyl-1-methyl-2,4-dioxo-1,2,3,4-tetrahydroquinazoline-6-carboxylic acid 4-hydroxy-3-methoxybenzylamide] | 0.051 µM |
| COc1ccc(CNC(=O)c2ccc3c(c2)c(=O)n(Cc2ccccc2)c(=O)n3C)cc1 [Synthesis Example 26, 3-Benzyl-1-methyl-2,4-dioxo-1,2,3,4-tetrahydroquinazoline-6-carboxylic acid 4-methoxybenzylamide] | 0.012 µM |
| COc1ccc(Cn2c(=O)c3cc(C(=O)NCc4ccc5c(c4)OCO5)ccc3n(C)c2=O)cc1 [Synthesis Example 28, 3-(4-Methoxybenzyl)-1-methyl-2,4-dioxo-1,2,3,4-tetrahydroquinazoline-6-carboxylic acid (benzo[1,3]dioxol-5-ylmethyl)amide] | 0.009 µM |
| COc1ccc(CNC(=O)c2ccc3c(c2)c(=O)n(Cc2ccc(OC)cc2)c(=O)n3C)cc1 [Synthesis Example 29, 3-(4-Methoxybenzyl)-1-methyl-2,4-dioxo-1,2,3,4-tetrahydroquinazoline-6-carboxylic acid 4-methoxybenzylamide] | 0.01 µM |
| Cn1c(=O)n(Cc2cccs2)c(=O)c2cc(C(=O)NCc3ccc4c(c3)OCO4)ccc21 [Synthesis Example 31, 1-Methyl-2,4-dioxo-3-(thien-2-ylmethyl)-1,2,3,4-tetrahydroquinazoline-6-carboxylic acid (benzo[1,3]dioxol-5-ylmethyl)amide] | 0.009 µM |
| CCn1c(=O)n(Cc2ccccc2)c(=O)c2cc(C(=O)NCc3ccc4c(c3)OCO4)ccc21 [Synthesis Example 36, 3-Benzyl-1-ethyl-2,4-dioxo-1,2,3,4-tetrahydroquinazoline-6-carboxylic acid (benzo[1,3]dioxol-5-ylmethyl)amide] | 0.026 µM |
| Cn1c(=O)[nH]c(=O)c2cc(C(=O)NCc3ccc4c(c3)OCO4)ccc21 [Synthesis Example 37, 1-Methyl-2,4-dioxo-1,2,3,4-tetrahydroquinazoline-6-carboxylic acid (benzo[1,3]dioxol-5-ylmethyl)amide] | 0.92 µM |
| COC(=O)c1ccc(Cn2c(=O)c3cc(C(=O)NCc4ccc(OC)cc4)ccc3n(C)c2=O)cc1 [Synthesis Example 38, 4-[6-(4-Methoxy-benzylcarbamoyl)-1-methyl-2,4-dioxo-1,4-dihydro-2H-quinazolin-3-ylmethyl]-benzoic acid methyl ester] | 0.004 µM |

Other lines, results leading:

| IC50 | SMILES |
| --- | --- |
| 0.021 µM | O=C(NCc1ccc2c(c1)OCO2)c1ccc2[nH]c(=O)n(Cc3ccccc3)c(=O)c2c1 [Synthesis Example 23, 3-Benzyl-2,4-dioxo-1,2,3,4-tetrahydroquinazoline-6-carboxylic acid (benzo[1,3]dioxol-5-ylmethyl)amide] |
| 0.005 µM | Cn1c(=O)n(Cc2ccccc2)c(=O)c2cc(C(=O)NCc3ccc4c(c3)OCO4)ccc21 [Synthesis Example 24] |
| 0.015 µM | COc1ccc(Cn2c(=O)[nH]c3ccc(C(=O)NCc4ccc5c(c4)OCO5)cc3c2=O)cc1 [Synthesis Example 27, 3-(4-Methoxybenzyl)-2,4-dioxo-1,2,3,4-tetrahydroquinazoline-6-carboxylic acid (benzo[1,3]dioxol-5-ylmethyl)amide] |
| 0.029 µM | O=C(NCc1ccc2c(c1)OCO2)c1ccc2[nH]c(=O)n(Cc3cccs3)c(=O)c2c1 [Synthesis Example 30, 2,4-Dioxo-3-(thien-2-ylmethyl)-1,2,3,4-tetrahydroquinazoline-6-carboxylic acid (benzo[1,3]dioxol-5-ylmethyl)amide] |
| 0.028 µM | O=C(NCc1ccc2c(c1)OCO2)c1ccc2[nH]c(=O)n(Cc3ccc(Cl)cc3)c(=O)c2c1 [Synthesis Example 32, 3-(4-Chlorobenzyl)-2,4-dioxo-1,2,3,4-tetrahydroquinazoline-6-carboxylic acid (benzo[1,3]dioxol-5-ylmethyl)amide] |
| 0.009 µM | Cn1c(=O)n(Cc2ccc(Cl)cc2)c(=O)c2cc(C(=O)NCc3ccc4c(c3)OCO4)ccc21 [Synthesis Example 33, 3-(4-Chlorobenzyl)-1-methyl-2,4-dioxo-1,2,3,4-tetrahydroquinazoline-6-carboxylic acid (benzo[1,3]dioxol-5-ylmethyl)amide] |
| 0.017 µM | O=C(NCc1ccc2c(c1)OCO2)c1ccc2[nH]c(=O)n(Cc3ccc4c(c3)OCO4)c(=O)c2c1 [Synthesis Example 34, 3-(Benzo[1,3]dioxol-5-ylmethyl)-2,4-dioxo-1,2,3,4-tetrahydroquinazoline-6-carboxylic acid (benzo[1,3]dioxol-5-ylmethyl)amide] |
| 0.003 µM | Cn1c(=O)n(Cc2ccc3c(c2)OCO3)c(=O)c2cc(C(=O)NCc3ccc4c(c3)OCO4)ccc21 [Synthesis Example 35, 3-(Benzo[1,3]dioxol-5-ylmethyl)-1-methyl-2,4-dioxo-1,2,3,4-tetrahydroquinazoline-6-carboxylic acid (benzo[1,3]dioxol-5-ylmethyl)amide] |
